pEC50: −log10 of the molar value. Like-named read-outs stand apart in the source and are kept apart here.
Columns and labels:
[1] = system: Human leukemia cell strain HL-60; assay: HL-60 differentiation induction (NBT reduction method); assay type: cell-based; conditions: for Retinoid synergistic activity BA(%) / Retinoid activity BA(%): maximum differentiation inducing rate relative to total cell number
Description: Human leukemia cell strain HL-60 differentiates into granulocytes (neutrophils) to come to have an ability to express active oxygen. […] A method for measuring differentiation inducibility of cells into granulocytes by using this principle is referred to as NBT reduction method. So, the differentiation inducibility of the synthesized compound was measured by NBT reduction method. […] Each compound was dissolved in dimethylsulfoxide (DMSO) into 20 mM to prepare a stock solution. NBT was prepared into 0.2 w/v % by using PBS (−) 2 hours before use and incubated at 37° C. TPA was dissolved in ethanol (EtOH) into 2 mg/mL to prepare a stock solution. This TPA solution was prepared into 20 μg/mL by using PBS (−) at the time of use. […] The action of RXR agonist is enhanced by the combined use of that and RAR agonist. […] After four days cultivation, cells were collected by centrifugation (4° C., 1500 rpm, 5 minutes). After these cells were seeded onto 1 mL of a fresh growth medium, then 1 mL of 0.2 w/v % NBT solution and 20 μl of 20 μg/ml of TPA solution were added, and incubation was carried out in the incubator containing 5% CO2 at 37° C. for 30 minutes. Then, stained cell number and total cell number were counted on a cell counter. Meanwhile, the measurement was conducted three times by counting 200 cells or more at a time and a differentiation inducing rate was calculated from a mean value obtained by averaging them. […] Meanwhile, “inert” means that differentiation inducibility can not be observed even at 10 μM. Likewise, b) BA (bioactivity) (%) refers to the maximum differentiation inducing rate relative to the total cell number in this test.

[2] = system: Histone Deacetylase (HDAC); assay: HDAC Activity/Inhibitor Screening Assay Kit (Cayman); assay type: biochemical; conditions: at 100 μM
Description: Activity Evaluation Method 3: Histone Deacetylase (HDAC) Inhibitory Activity
HDAC inhibitory activity was evaluated for compounds represented by formulae XVII and XVIII, through the use of HDAC Activity/Inhibitor Screening Assay Kit supplied by Cayman and according to that protocol.

RXRα = molecular target: T1, RXRα (Homo sapiens, UniProt P19793); assay: RXR reporter gene assay (luciferase) in COS-1 cells, RXRα; assay type: cell-based; conditions: for Emax: COS-1; for pEC50 / RXRα Emax (%): COS-1 cells; for pEC50: half of maximum transcriptional activation potential; for RXRα Emax (%): relative to PA024 (1 μM) = 100%
T1 construct: expressed in transfected cells; host or cells: COS-1 cells
T1 sequence (P19793 1-462): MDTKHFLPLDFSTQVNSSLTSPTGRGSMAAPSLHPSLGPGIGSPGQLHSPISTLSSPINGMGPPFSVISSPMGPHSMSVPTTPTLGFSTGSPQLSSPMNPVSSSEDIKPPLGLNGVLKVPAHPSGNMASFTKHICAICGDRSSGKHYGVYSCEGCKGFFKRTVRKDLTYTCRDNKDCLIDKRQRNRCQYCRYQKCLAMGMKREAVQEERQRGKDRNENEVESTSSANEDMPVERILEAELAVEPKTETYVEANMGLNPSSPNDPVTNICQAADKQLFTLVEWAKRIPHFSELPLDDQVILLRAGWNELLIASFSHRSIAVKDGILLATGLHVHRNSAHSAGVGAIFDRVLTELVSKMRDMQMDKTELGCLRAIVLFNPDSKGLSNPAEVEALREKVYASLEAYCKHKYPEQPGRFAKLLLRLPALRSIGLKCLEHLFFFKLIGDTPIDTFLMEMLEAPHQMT
Description: (§1) Most of nuclear receptors are transcription factors associated with regulating transcription, so that reporter gene assay is conducted as a means of measuring its transcription activity. An expression plasmid for RXR receptor protein and a reporter plasmid were introduced into cells such as COS-1 cells and HeLa cells to cause overexpression. And, when RXR agonist is bound to the receptor, transcription is induced in a ligand dependent manner, and a protein which is referred to as fusion protein downstream is produced. The binding of this fusion protein to the binding site on the reporter plasmid initiates the transcription to produce luciferase downstream. RXR agonistic activity was measured by measuring this luciferase activity.
(§2) Dulbecco's Modified Eagle MEM medium (DMEM) was used as growth medium.
(§3) Passage was conducted by removing culture supernatant from the cell culture grown in a 100 mm culture dish, collecting cells by trypsinization, centrifuging at 1000 rpm at 4° C. for 3 minutes, then dispersing cells by adding growth medium and growing them in a 100 mm culture dish (15 mL of growth medium) at 37° C. in the presence of 5% CO2.
(§4) Transformation was conducted using Effectene™ Transfection Reagent (QIAGEN). Further, Luciferase Assay System was used for evaluating luciferase activity. Am80 was used for the positive control of RAR, and 9-cis retinoic acid was used for the positive control of RXR. They were dissolved in DMSO for use as a stock solution and measured on every plate to be assayed.
(§5) • On day 1: COS-1 cells were seeded along with 15 mL of growth medium in a 60 mm culture dish at 50×10^4 cells and were cultured over night. • On day 2: Transformation was conducted by lipofection using Effectene™ Transfection Reagent. • On day 3: 16 to 18 hours later, the culture supernatant was removed, cells were collected by trypsinization, centrifugation was conducted at 1000 rpm at 4° C. for 3 minutes, then cells were dispersed by adding growth medium, and then the cells were seeded on a 96-well white plate at 2.0×10^4 cells/well. Then, each compound was added at DMSO concentration of 1% or below. • On day 4: 24 hours later, 25 μL of the supernatant was used for SEAP measurement, and the rest cell-containing solution was used for measuring luciferase activity.
(§6) In Table 5, a) EC50 indicated a concentration giving the half of the maximum transcriptional activation potential.

RXRβ = molecular target: T2, RXRβ (Homo sapiens, UniProt P28702); assay: RXR reporter gene assay (luciferase) in COS-1 cells, RXRβ; assay type: cell-based; conditions: for Emax: COS-1; for pEC50 / RXRβ Emax (%): COS-1 cells; for pEC50: half of maximum transcriptional activation potential; for RXRβ Emax (%): relative to PA024 (1 μM) = 100%
T2 construct: expressed in transfected cells; host or cells: COS-1 cells
T2 sequence (P28702 1-533): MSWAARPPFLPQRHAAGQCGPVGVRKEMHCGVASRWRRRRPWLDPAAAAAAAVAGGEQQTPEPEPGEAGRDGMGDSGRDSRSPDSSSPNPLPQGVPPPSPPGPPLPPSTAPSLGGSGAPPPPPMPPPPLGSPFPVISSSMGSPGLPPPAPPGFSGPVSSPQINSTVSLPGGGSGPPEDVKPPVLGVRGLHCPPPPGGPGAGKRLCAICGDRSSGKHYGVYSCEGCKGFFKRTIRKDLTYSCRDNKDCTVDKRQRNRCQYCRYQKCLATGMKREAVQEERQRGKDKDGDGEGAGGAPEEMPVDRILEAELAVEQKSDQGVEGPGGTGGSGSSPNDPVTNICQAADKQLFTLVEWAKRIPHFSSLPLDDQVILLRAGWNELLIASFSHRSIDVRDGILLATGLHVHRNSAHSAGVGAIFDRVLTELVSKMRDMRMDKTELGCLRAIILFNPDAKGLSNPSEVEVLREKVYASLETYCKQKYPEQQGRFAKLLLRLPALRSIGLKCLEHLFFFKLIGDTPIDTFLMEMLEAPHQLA
Description: as §1, §2, §3, §4, §5, §6

RXRγ = molecular target: T3, RXRγ (Homo sapiens, UniProt P48443); assay: RXR reporter gene assay (luciferase) in COS-1 cells, RXRγ; assay type: cell-based; conditions: for Emax: COS-1; for pEC50 / RXRγ Emax (%): COS-1 cells; for pEC50: half of maximum transcriptional activation potential; for RXRγ Emax (%): relative to PA024 (1 μM) = 100%
T3 construct: expressed in transfected cells; host or cells: COS-1 cells
T3 sequence (P48443 1-463): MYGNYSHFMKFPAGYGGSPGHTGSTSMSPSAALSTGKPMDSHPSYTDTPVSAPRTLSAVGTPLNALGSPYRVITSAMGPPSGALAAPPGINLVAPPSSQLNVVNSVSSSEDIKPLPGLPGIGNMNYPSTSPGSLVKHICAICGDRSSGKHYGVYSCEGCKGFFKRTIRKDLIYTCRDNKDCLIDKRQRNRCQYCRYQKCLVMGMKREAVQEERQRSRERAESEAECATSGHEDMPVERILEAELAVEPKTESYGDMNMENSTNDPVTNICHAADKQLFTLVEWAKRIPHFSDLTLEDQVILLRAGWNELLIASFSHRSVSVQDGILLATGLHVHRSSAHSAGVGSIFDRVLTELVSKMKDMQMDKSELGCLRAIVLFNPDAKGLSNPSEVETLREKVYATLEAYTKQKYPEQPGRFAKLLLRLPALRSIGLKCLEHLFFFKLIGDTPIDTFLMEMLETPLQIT
Description: as §1, §2, §3, §4, §5, §6

[3] = system: edema induced by carrageenin; assay: Carrageenin edema test; assay type: in vivo; conditions: rats, 10 mg/kg oral, 3 hours before carrageenin; 3 hours after the administration of carrageenin; hind foot pads
Description: Carrageenin edema test was used for anti-inflammatory test by using rats. 10 mg/kg compound 1a (NEt-3IP) was orally administered to five rats in a group, and then 3 hours later, 1% carrageenin solution, which was an edema-inducing substance, was subcutaneously administered to the hind foot pads (0.1 mL/rat). Then, 1, 2, 3 and 4 hours after that, the thickness of edema of the hind foot pads was measured. […] The rate of inhibiting edema was 27% 3 hours after the administration of carrageenin.

[4] = Am80 present at 3.3×10^−10 M, half of maximum differentiation inducing rate, read-out: Retinoid synergistic activity SEC50
[5] = test compound alone, concentration giving half of maximum differentiation inducing rate, four days culture, read-out: Retinoid activity EC50
[6] = Homo sapiens, HL-60, 96 h, test compound alone, concentration giving half of maximum differentiation inducing rate, four days culture, read-out: Retinoid activity EC50

Structure (SMILES) | pEC50 [1, 4] | Retinoid synergistic activity BA(%) ([1]; Am80 present at 3.3×10^−10 M) | pEC50 [1, 5] | Retinoid activity BA(%) ([1]; test compound alone) | pEC50 (RXRα) | pEC50 (RXRβ) | pEC50 (RXRγ) | also measured
CCCOc1ccc(Nc2ccc(C(=O)O)cn2)cc1C(C)C [Compound 5c] | < 5.00 | 15% | < 5.00 | 3% | – | – | – | –
CCCOc1cc(N(CC)c2ccc(C(=O)O)cn2)ccc1C(C)C [Compound 2a] | 7.64 | 74% | < 5.00 | 4% | – | – | – | –
CC(C)Oc1cc(N(c2ccc(C(=O)O)cn2)S(C)(=O)=O)ccc1C(C)C [Compound 1b] | 6.05 | 63% | < 5.00 | 44% | – | – | – | –
CCN(c1ccc(C(C)C)c(OC(C)C)c1)c1ccc(/C=C/C(=O)O)cn1 [XVII] | – | – | – | – | – | – | – | HDAC activity inhibition rate [2]: 78%
CCN(c1ccc(C(C)C)c(OC(C)C)c1)c1ccc(C(=O)O)cn1 [Compound 1a] | 8.00 | 80% | – | 4% | 7.57 | 7.46 | < 6.42 | pEC50 [1, 6]: < 5.00; Emax (RXRα): 130%; selectivity for RXRα/β over RXRγ (RXRα; reporter gene assay, RXRα/β versus RXRγ): ≥ 10 times; Emax (RXRβ): 110%; Emax (RXRγ): > 88%; rate of inhibiting edema [3]: 27%
CCN(c1ccc(OC(C)C)c(C(C)C)c1)c1ccc(C(=O)O)cn1 [Compound 4a] | 7.64 | 64% | < 5.00 | – | < 6.18 | < 5.89 | < 6.46 | RXRα Emax (%) (RXRα): >110%; RXRβ Emax (%) (RXRβ): >80%; RXRγ Emax (%) (RXRγ): >81%
CCN(c1ccc(C(C)C)c(OC(C)C)c1)c1ncc(C(=O)O)cn1 [Compound 6a] | 7.92 | 87% | – | 3% | 8.22 | 7.74 | < 7.24 | pEC50 [1, 6]: < 5.00; Emax (RXRα): 110%; Emax (RXRβ): 100%; Emax (RXRγ): 105%
CCCOc1cc(Nc2ccc(C(=O)O)cn2)ccc1C(C)C [Compound 2c] | 5.37 | 60% | < 5.00 | 50% | – | – | – | –
CCCOc1cc(N(c2ccc(C(=O)O)cn2)S(C)(=O)=O)ccc1C(C)C [Compound 2b] | 6.10 | 63% | < 5.00 | 50% | – | – | – | –
CC(C)Oc1cc(Nc2ccc(C(=O)O)cn2)ccc1C(C)C [Compound 1c] | 5.35 | 63% | < 5.00 | 24% | – | – | – | –
CCN(c1ccc(C(C)C)c(OCC(C)C)c1)c1ncc(C(=O)O)cn1 [Compound 7a] | – | – | – | – | 8.54 | 8.14 | 8.31 | RXRα Emax (%) (RXRα): 110%; RXRβ Emax (%) (RXRβ): 140%; RXRγ Emax (%) (RXRγ): 105%
CC(C)Oc1ccc(Nc2ccc(C(=O)O)cn2)cc1C(C)C [Compound 4c] | < 5.00 | 29% | < 5.00 | 24% | – | – | – | –

Reference: US8389538B2, “Rexinoid compound having alkoxy group” (National University Corporation Okayama University, priority 2007, dated 2013)
